Data published in article PMC11714206, “Massively Parallel Screening of Toll/Interleukin‐1 Receptor (TIR)‐Derived Peptides Reveals Multiple Toll‐Like Receptors (TLRs)‐Targeting Immunomodulatory Peptides” (Advanced Science, 2024).

Molecular target: T1, MAL^TIR (Homo sapiens, UniProt P58753)
T1 construct: MAL (residues 79–221); 6xHis; made in house; host or cells: E. coli BL21 (DE3)
Test: T‐Surf phage library (P8 and P3) selection against MAL^TIR, four rounds, NGS read counts
Format: binding
Conditions: for Population: 4th round of selection against MAL TIR, share of NGS reads; for P3_MAL Rank (after) / P3_MAL Rank (before): P3 library; for P8_MAL Rank (after) / P8_MAL Rank (before): P8 library
Outline: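 Four panning rounds on TIR domain adsorbed at 5 µg mL^−1; binding 1 h at 20–22 °C, elution with 100 mM HCl. Output: NGS read counts of round‐4 pools versus naïve library.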

[1] = P3_MAL: rank by count after grouping
[2] = P3_MAL: rank by count before grouping
[3] = P8_MAL pool: P8 T-Surf phage library
[4] = selection against MAL, rank after grouping
[5] = selection against MAL, rank before grouping
[6] = P8_MAL: rank by count after grouping
[7] = P8_MAL: rank by count before grouping
[8] = 4R selection against MAL, rank after grouping
[9] = 4R selection against MAL, rank before grouping
[10] = selection against MAL TIR, rank by count after grouping
[11] = selection against MAL TIR, rank by count before grouping
[12] = selection against MAL, rank by count after grouping
[13] = selection against MAL, rank by count before grouping
[14] = P3_MAL pool: P3 T-Surf phage library

T1 sequence (P58753 79-221): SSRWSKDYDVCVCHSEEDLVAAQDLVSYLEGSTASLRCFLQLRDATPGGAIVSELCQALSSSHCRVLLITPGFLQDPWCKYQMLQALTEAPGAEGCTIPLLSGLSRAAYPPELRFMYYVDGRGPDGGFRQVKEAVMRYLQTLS

LSGWAFKRGSCAEYEY
Rank (after) [1]: 398
Rank (before) [2]: 2188

AFLYTFLINPTHPTNF
Population [3]: 0.00309%

WFYERLVSLFLRDTKV
Population [3]: 0.00371%

RSFREGLWRLLELRKQ
P3_MAL Rank (after) [4]: 507
P3_MAL Rank (before) [5]: 2627

PQDLEWFYERLVSLIL
Rank (after) [6]: 423
Rank (before) [7]: 2328

PEKDTVRVNVIIHNIV
Rank (after) [1]: 470
Rank (before) [2]: 2642

VTKLKKGKSIAPKLLR
Rank (after) [6]: 469
Rank (before) [7]: 1562

YFLHFLLFNRPETNYI
P8_MAL Rank (after) [8]: 597
P8_MAL Rank (before) [9]: 1467

LFLWASLKQLLRSANC
P8_MAL Rank (after) [8]: 661
P8_MAL Rank (before) [9]: 2142

HPKGSYREALAEHEKR
P3_MAL Rank (after) [4]: 503
P3_MAL Rank (before) [5]: 2809

SSFREDMWRRLELSQQ
P3_MAL Rank (after) [8]: 658
P3_MAL Rank (before) [9]: 3188

TFLAICIMRWCRRAF
Rank (after) [6]: 99
Rank (before) [7]: 718

YNFISHLHRYLVQRGV
P3_MAL Rank (after) [4]: 562
P3_MAL Rank (before) [5]: 1581

PNLRTKLLNYLMHTKT
P3_MAL Rank (after) [10]: 247
P3_MAL Rank (before) [11]: 2742

WFYELLVSLIVRDTKV
Rank (after) [6]: 394
Rank (before) [7]: 1150

LFWELLRQALGSRNRL
P8_MAL Rank (after) [4]: 488
P8_MAL Rank (before) [5]: 2152

AFFWTHLKNLPRNPTF
P8_MAL Rank (after) [10]: 285
P8_MAL Rank (before) [11]: 1721

YAFTSHLHHALRLNKIETF
P3_MAL Rank (after) [12]: 711
P3_MAL Rank (before) [13]: 1475

AFLGTAAYRAGQTDD
Rank (after) [6]: 430
Rank (before) [7]: 1777

YAFTGHLPRYLVQRGG
Rank (after) [1]: 425
Rank (before) [2]: 1373

RKGDLISDELLIAIEE
P8_MAL Rank (after) [4]: 575
P8_MAL Rank (before) [5]: 2300

KLQEWRDALTAAANLSGW
P3_MAL Rank (after) [8]: 600
P3_MAL Rank (before) [9]: 3631

AFFGAQLKSVLGNPPM
P8_MAL Rank (after) [10]: 210
P8_MAL Rank (before) [11]: 1740

KTLAGLRCDHLFRLRL
P3_MAL Rank (after) [8]: 639
P3_MAL Rank (before) [9]: 3743

AFLYTFLLNLTHPTNL
P8_MAL Rank (after) [10]: 223
P8_MAL Rank (before) [11]: 1830

TFFSQQLNTVVHTAIL
P8_MAL Rank (after) [12]: 697
P8_MAL Rank (before) [13]: 2542

WFYERLVCLILRDIKV
Rank (after) [6]: 465
Rank (before) [7]: 1171

AFLYLSDQSDPSDQF
P8_MAL Rank (after) [10]: 237
P8_MAL Rank (before) [11]: 1915

AFLGEQLHTMVDKPTM
P8_MAL Rank (after) [4]: 491
P8_MAL Rank (before) [5]: 1776

YAFTGHLHRYLQAKDH
P3_MAL Rank (after) [4]: 496
P3_MAL Rank (before) [5]: 1419

HFSRIQLKSRLGETSF
Rank (after) [6]: 444
Rank (before) [7]: 2425

LGFLRHLRHHLQAKDH
P3_MAL Rank (after) [12]: 693
P3_MAL Rank (before) [13]: 2082

WFYECLVSLILRVTKV
P8_MAL Rank (after) [10]: 217
P8_MAL Rank (before) [11]: 1145

YAFTGHLHRYLAQRGV
Population [14]: 0.00488%

GSIKWRDQHTVHPQSS
P3_MAL Rank (after) [8]: 589
P3_MAL Rank (before) [9]: 1776

PNLRTKGLNYLMRTKT
Population [14]: 0.00338%

RLLKWGYPWFWDRLRFA
Rank (after) [1]: 187
Rank (before) [2]: 907

HQAFWKRPWAKLKPPT
Rank (after) [1]: 472
Rank (before) [2]: 2884

KEVEGWRDALRKIANIF
Rank (after) [1]: 417
Rank (before) [2]: 3560

RGFLSHLYQGLKNRGI
Rank (after) [1]: 423
Rank (before) [2]: 2362

AFLYTFLINLTHQTNF
Population [3]: 0.0034%

YFLHFLLFSRPNRVY
Rank (after) [6]: 438
Rank (before) [7]: 1488

PFLGHLSNALVQAGIH
Rank (after) [6]: 132
Rank (before) [7]: 2331

ALFWEQLRTVLGKLTM
Rank (after) [6]: 435
Rank (before) [7]: 1924

KERLHQWKLALTQAANLS
P3_MAL Rank (after) [12]: 766
P3_MAL Rank (before) [13]: 3603

YFLHFLLYDHLRWLGIRAFL
P8_MAL Rank (after) [4]: 572
P8_MAL Rank (before) [5]: 1498

RKFEAYLFQALANKGI
P8_MAL Rank (after) [10]: 208
P8_MAL Rank (before) [11]: 2257

PNLRTKVLNYLMRIKT
Population [14]: 0.00413%

WFLEQLEKILEAHGTT
P8_MAL Rank (after) [12]: 715
P8_MAL Rank (before) [13]: 1353

NQWRNALTAVANLSGW
Population [14]: 0.00451%

NQWSNSLTAAANLSGW
Rank (after) [1]: 186
Rank (before) [2]: 3419

RGFLSHLLLHLQAKDH
Rank (after) [1]: 395
Rank (before) [2]: 2364

EWIREQMSPALKERLP
P3_MAL Rank (after) [8]: 617
P3_MAL Rank (before) [9]: 2023

NQWRNALTAAANLSGR
Population [14]: 0.00564%

SDFIQLINLLVKPKII
P8_MAL Rank (after) [4]: 558
P8_MAL Rank (before) [5]: 2443

LCFRESLKQLLRSNGR
P8_MAL Rank (after) [4]: 535
P8_MAL Rank (before) [5]: 2162

AFLYTFLIILTHPINF
P8_MAL Rank (after) [12]: 688
P8_MAL Rank (before) [13]: 1833

WFYERLVSLILRATQV
Rank (after) [6]: 474
Rank (before) [7]: 1228

KNLFNELVRKNLRTFM
Rank (after) [1]: 458
Rank (before) [2]: 3753

RNLGAYLFQALANKGI
P8_MAL Rank (after) [10]: 254
P8_MAL Rank (before) [11]: 2246

WFYERLVSLLLRDTKV
Population [3]: 0.00309%

LLIYRFVKKRNYLLGH
Rank (after) [1]: 416
Rank (before) [2]: 2085

AFYWAQLKIVLGNPTM
P8_MAL Rank (after) [12]: 686
P8_MAL Rank (before) [13]: 1786

TFLGHLYNTLVHAGTH
Rank (after) [6]: 397
Rank (before) [7]: 2600

NQAFWNRLWAKLKPLT
P3_MAL Rank (after) [8]: 631
P3_MAL Rank (before) [9]: 3431

LFFWEKLRQLLRRAAS
Rank (after) [6]: 387
Rank (before) [7]: 2124

KLFQQWIELHLHQLHL
Rank (after) [6]: 436
Rank (before) [7]: 2724
